From patent publication US20240325398A1, “COMBINATION THERAPIES” (Infinity Pharmaceuticals, Inc., priority 2014, published 2024)

Assays:
DOHH2 = assay: Compound 1 with dexamethasone, CellTiter-Glo viability 72 h, combination index; type: cell-based; conditions: DOHH2
Description: The effects of Compound 1 with dexamethasone were examined in a panel of cell lines. Cells were cultured and assayed as follows. Compound 1 was serially diluted with cell culture medium and various DMSO concentrations. The top concentration of Compound 1 exposed to cells was 3 uM for cell lines other than WSU-NHL and DOHH2. For WSU-NHL and DOHH2 cell lines, the top concentration of Compound 1 exposed to the cells was 0.3 uM. Dexamethasone was serially diluted in culture media and phosphate buffered saline (PBS). The top concentration of dexamethasone used on cells was 3 uM. Cells were at least 73% viable and were counted and diluted for plating at a density of about 92,000 cell/mL, 130 uL cells per well in 96 well plates for SUDHL6, Karpas 422, SUDHL4, WSU-NHL, RL, and DOHH2 cell lines. The SUDHL10 cell line was plated at a density of about 46,000 cells/mL, 130 uL cells per well in 96 well plates.
Various concentrations of Compound 1 and various combinations of dexamethasone were added to various wells of cells. Single agents (Compound 1 or dexamethasone alone) were also added to some wells of cells. Cells were incubated with compounds for 72 hours. To assay for effects of the compounds on cell viability, a CellTiter-Glo® luminescent cell viability assay (commercially available) was used. To each plate of cells, 100 uL CellTiter-Glo reagent was added, incubated, and luminescence quantified using a […].
The results for cell line DOHH2 are depicted in FIG. 11 and Table 11. […] Table 11 depicts combination index (CI) values for different combinations of dexamethasone/Compound 1 concentrations.

DOHH-2 = assay: Combination study, ATPLite 72 h, dose matrix (Synergy Score, CI50)
OCI-Ly7 = assay: as above

C[C@H](Nc1ncnc2[nH]cnc12)c1cc2cccc(Cl)c2c(=O)n1-c1ccccc1 [Compound 1, (S)-3-(1-((9H-purin-6-yl)amino)ethyl)-8-chloro-2-phenylisoquinolin-1(2H)-one]
combination index (CI) (DOHH2; Compound 1 0.137174 nM + Dexamethasone 1.371742 nM): E (E = >1)
combination index (CI) (DOHH2; Compound 1 0.137174 nM + Dexamethasone 4.115226 nM): E (E = >1)
combination index (CI) (DOHH2; Compound 1 0.137174 nM + Dexamethasone 12.34568 nM): E (E = >1)
combination index (CI) (DOHH2; Compound 1 0.137174 nM + Dexamethasone 37.03704 nM): E (E = >1)
combination index (CI) (DOHH2; Compound 1 0.137174 nM + Dexamethasone 111.1111 nM): C (C = 0.5 to <0.7)
combination index (CI) (DOHH2; Compound 1 0.137174 nM + Dexamethasone 333.3333 nM): A (A = 0.0001 to <0.3)
combination index (CI) (DOHH2; Compound 1 0.137174 nM + Dexamethasone 1000 nM): A (A = 0.0001 to <0.3)
combination index (CI) (DOHH2; Compound 1 0.137174 nM + Dexamethasone 3000 nM): A (A = 0.0001 to <0.3)
combination index (CI) (DOHH2; Compound 1 0.411523 nM + Dexamethasone 1.371742 nM): E (E = >1)
combination index (CI) (DOHH2; Compound 1 0.411523 nM + Dexamethasone 4.115226 nM): E (E = >1)
combination index (CI) (DOHH2; Compound 1 0.411523 nM + Dexamethasone 12.34568 nM): E (E = >1)
combination index (CI) (DOHH2; Compound 1 0.411523 nM + Dexamethasone 37.03704 nM): E (E = >1)
combination index (CI) (DOHH2; Compound 1 0.411523 nM + Dexamethasone 111.1111 nM): C (C = 0.5 to <0.7)
combination index (CI) (DOHH2; Compound 1 0.411523 nM + Dexamethasone 333.3333 nM): B (B = 0.3 to <0.5)
combination index (CI) (DOHH2; Compound 1 0.411523 nM + Dexamethasone 1000 nM): A (A = 0.0001 to <0.3)
combination index (CI) (DOHH2; Compound 1 0.411523 nM + Dexamethasone 3000 nM): A (A = 0.0001 to <0.3)
combination index (CI) (DOHH2; Compound 1 1.234568 nM + Dexamethasone 1.371742 nM): E (E = >1)
combination index (CI) (DOHH2; Compound 1 1.234568 nM + Dexamethasone 4.115226 nM): E (E = >1)
combination index (CI) (DOHH2; Compound 1 1.234568 nM + Dexamethasone 12.34568 nM): E (E = >1)
combination index (CI) (DOHH2; Compound 1 1.234568 nM + Dexamethasone 37.03704 nM): E (E = >1)
combination index (CI) (DOHH2; Compound 1 1.234568 nM + Dexamethasone 111.1111 nM): B (B = 0.3 to <0.5)
combination index (CI) (DOHH2; Compound 1 1.234568 nM + Dexamethasone 333.3333 nM): A (A = 0.0001 to <0.3)
combination index (CI) (DOHH2; Compound 1 1.234568 nM + Dexamethasone 1000 nM): A (A = 0.0001 to <0.3)
combination index (CI) (DOHH2; Compound 1 1.234568 nM + Dexamethasone 3000 nM): A (A = 0.0001 to <0.3)
combination index (CI) (DOHH2; Compound 1 3.703704 nM + Dexamethasone 1.371742 nM): B (B = 0.3 to <0.5)
combination index (CI) (DOHH2; Compound 1 3.703704 nM + Dexamethasone 4.115226 nM): E (E = >1)
combination index (CI) (DOHH2; Compound 1 3.703704 nM + Dexamethasone 12.34568 nM): E (E = >1)
combination index (CI) (DOHH2; Compound 1 3.703704 nM + Dexamethasone 37.03704 nM): D (D = 0.7 to <1)
combination index (CI) (DOHH2; Compound 1 3.703704 nM + Dexamethasone 111.1111 nM): A (A = 0.0001 to <0.3)
combination index (CI) (DOHH2; Compound 1 3.703704 nM + Dexamethasone 333.3333 nM): A (A = 0.0001 to <0.3)
combination index (CI) (DOHH2; Compound 1 3.703704 nM + Dexamethasone 1000 nM): A (A = 0.0001 to <0.3)
combination index (CI) (DOHH2; Compound 1 3.703704 nM + Dexamethasone 3000 nM): A (A = 0.0001 to <0.3)
combination index (CI) (DOHH2; Compound 1 11.11111 nM + Dexamethasone 1.371742 nM): B (B = 0.3 to <0.5)
combination index (CI) (DOHH2; Compound 1 11.11111 nM + Dexamethasone 4.115226 nM): E (E = >1)
combination index (CI) (DOHH2; Compound 1 11.11111 nM + Dexamethasone 12.34568 nM): E (E = >1)
combination index (CI) (DOHH2; Compound 1 11.11111 nM + Dexamethasone 37.03704 nM): C (C = 0.5 to <0.7)
combination index (CI) (DOHH2; Compound 1 11.11111 nM + Dexamethasone 111.1111 nM): A (A = 0.0001 to <0.3)
combination index (CI) (DOHH2; Compound 1 11.11111 nM + Dexamethasone 333.3333 nM): A (A = 0.0001 to <0.3)
combination index (CI) (DOHH2; Compound 1 11.11111 nM + Dexamethasone 1000 nM): A (A = 0.0001 to <0.3)
combination index (CI) (DOHH2; Compound 1 11.11111 nM + Dexamethasone 3000 nM): A (A = 0.0001 to <0.3)
combination index (CI) (DOHH2; Compound 1 33.33333 nM + Dexamethasone 1.371742 nM): B (B = 0.3 to <0.5)
combination index (CI) (DOHH2; Compound 1 33.33333 nM + Dexamethasone 4.115226 nM): B (B = 0.3 to <0.5)
combination index (CI) (DOHH2; Compound 1 33.33333 nM + Dexamethasone 12.34568 nM): D (D = 0.7 to <1)
combination index (CI) (DOHH2; Compound 1 33.33333 nM + Dexamethasone 37.03704 nM): A (A = 0.0001 to <0.3)
combination index (CI) (DOHH2; Compound 1 33.33333 nM + Dexamethasone 111.1111 nM): A (A = 0.0001 to <0.3)
combination index (CI) (DOHH2; Compound 1 33.33333 nM + Dexamethasone 333.3333 nM): A (A = 0.0001 to <0.3)
combination index (CI) (DOHH2; Compound 1 33.33333 nM + Dexamethasone 1000 nM): A (A = 0.0001 to <0.3)
combination index (CI) (DOHH2; Compound 1 33.33333 nM + Dexamethasone 3000 nM): A (A = 0.0001 to <0.3)
combination index (CI) (DOHH2; Compound 1 100 nM + Dexamethasone 1.371742 nM): B (B = 0.3 to <0.5)
combination index (CI) (DOHH2; Compound 1 100 nM + Dexamethasone 4.115226 nM): A (A = 0.0001 to <0.3)
combination index (CI) (DOHH2; Compound 1 100 nM + Dexamethasone 12.34568 nM): C (C = 0.5 to <0.7)
combination index (CI) (DOHH2; Compound 1 100 nM + Dexamethasone 37.03704 nM): A (A = 0.0001 to <0.3)
combination index (CI) (DOHH2; Compound 1 100 nM + Dexamethasone 111.1111 nM): A (A = 0.0001 to <0.3)
combination index (CI) (DOHH2; Compound 1 100 nM + Dexamethasone 333.3333 nM): A (A = 0.0001 to <0.3)
combination index (CI) (DOHH2; Compound 1 100 nM + Dexamethasone 1000 nM): A (A = 0.0001 to <0.3)
combination index (CI) (DOHH2; Compound 1 100 nM + Dexamethasone 3000 nM): A (A = 0.0001 to <0.3)
combination index (CI) (DOHH2; Compound 1 300 nM + Dexamethasone 1.371742 nM): B (B = 0.3 to <0.5)
combination index (CI) (DOHH2; Compound 1 300 nM + Dexamethasone 4.115226 nM): B (B = 0.3 to <0.5)
combination index (CI) (DOHH2; Compound 1 300 nM + Dexamethasone 12.34568 nM): A (A = 0.0001 to <0.3)
combination index (CI) (DOHH2; Compound 1 300 nM + Dexamethasone 37.03704 nM): A (A = 0.0001 to <0.3)
combination index (CI) (DOHH2; Compound 1 300 nM + Dexamethasone 111.1111 nM): A (A = 0.0001 to <0.3)
combination index (CI) (DOHH2; Compound 1 300 nM + Dexamethasone 333.3333 nM): A (A = 0.0001 to <0.3)
combination index (CI) (DOHH2; Compound 1 300 nM + Dexamethasone 1000 nM): A (A = 0.0001 to <0.3)
combination index (CI) (DOHH2; Compound 1 300 nM + Dexamethasone 3000 nM): A (A = 0.0001 to <0.3)
CI50 growth inhibition (DOHH-2; combination with Dexamethasone): S (S=0.01 to <0.5)
CI50 inhibition (DOHH-2; combination with Dexamethasone): S (S=0.01 to <0.5)
Synergy Score growth inhibition (DOHH-2; combination with Dexamethasone): A3 (A3=>3)
Synergy Score inhibition (DOHH-2; combination with Dexamethasone): A3 (A3=>3)
CI50 growth inhibition (DOHH-2; combination with LEE011): T (T=0.5 to <0.7)
CI50 inhibition (DOHH-2; combination with LEE011): U (U=0.7 to <1)
Synergy Score growth inhibition (DOHH-2; combination with LEE011): A3 (A3=>3)
Synergy Score inhibition (DOHH-2; combination with LEE011): A2 (A2=1 to <3)
CI50 growth inhibition (DOHH-2; combination with PCI-32765): S (S=0.01 to <0.5)
CI50 inhibition (DOHH-2; combination with PCI-32765): S (S=0.01 to <0.5)
Synergy Score growth inhibition (DOHH-2; combination with PCI-32765): A3 (A3=>3)
Synergy Score inhibition (DOHH-2; combination with PCI-32765): A3 (A3=>3)
CI50 growth inhibition (DOHH-2; combination with PD-0332991): U (U=0.7 to <1)
CI50 inhibition (DOHH-2; combination with PD-0332991): U (U=0.7 to <1)
Synergy Score growth inhibition (DOHH-2; combination with PD-0332991): A3 (A3=>3)
Synergy Score inhibition (DOHH-2; combination with PD-0332991): A2 (A2=1 to <3)
CI50 growth inhibition (OCI-Ly7; combination with Dexamethasone): S (S=0.01 to <0.5)
CI50 inhibition (OCI-Ly7; combination with Dexamethasone): S (S=0.01 to <0.5)
Synergy Score growth inhibition (OCI-Ly7; combination with Dexamethasone): A3 (A3=>3)
Synergy Score inhibition (OCI-Ly7; combination with Dexamethasone): A2 (A2=1 to <3)
CI50 growth inhibition (OCI-Ly7; combination with LEE011): U (U=0.7 to <1)
CI50 inhibition (OCI-Ly7; combination with LEE011): W (W=≥1)
Synergy Score growth inhibition (OCI-Ly7; combination with LEE011): A2 (A2=1 to <3)
Synergy Score inhibition (OCI-Ly7; combination with LEE011): A1 (A1=0.0001 to <1)
CI50 growth inhibition (OCI-Ly7; combination with PCI-32765): W (W=≥1)
Synergy Score growth inhibition (OCI-Ly7; combination with PCI-32765): A2 (A2=1 to <3)
Synergy Score inhibition (OCI-Ly7; combination with PCI-32765): A1 (A1=0.0001 to <1)
CI50 growth inhibition (OCI-Ly7; combination with PD-0332991): T (T=0.5 to <0.7)
CI50 inhibition (OCI-Ly7; combination with PD-0332991): S (S=0.01 to <0.5)
Synergy Score growth inhibition (OCI-Ly7; combination with PD-0332991): A2 (A2=1 to <3)
Synergy Score inhibition (OCI-Ly7; combination with PD-0332991): A2 (A2=1 to <3)
